Drawing on PubChem BioAssay (NCI), this text covers TGI for 16 molecules.

Structures are written as SMILES.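 Following 48 hours of exposure in 96-well plates, responses at five concentrations were used to interpolate endpoints linearly. TGI marks complete inhibition of growth.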

Common to all, as to test: NCI anticancer screen, dose series, 48 h
The subject of test [1] is SF-295 CNS.
Test [2] relates to NCI-H522 lung.
The subject of test [3] is U251 CNS.
Test [4] relates to IGROV1 ovarian.
Test [5] concerns HCC-2998 colon.
Test [6] relates to COLO 205 colon.
The test system of test [7] is TK-10 renal.
The subject of test [8] is SK-OV-3 ovarian.
Test [9] concerns MDA-MB-435.
For test [10], the system named is MDA-MB-231 breast.

On to `NCC1(N2CCOCC2)C2CCCC21CNc1ccccc1` (centres undefined), for which the TGI in test [1], in [2], in test [3], in [4], in [5] and in [6] was over 100 µM throughout. The TGI in [7] is over 100 µM.

Take `N#CC1C(=O)NC(=O)C1=O` (centres undefined): the TGI in test [1], in test [2], in test [8], in [3], in test [4] and in test [5] was over 100 µM each time. The TGI in [6] and in test [7] was over 100 µM in each case.

On to `O=C1c2ccccc2C(=O)c2c1ccc1c2N=C(c2ccc(Br)cc2)CC(c2cccc3ccccc23)N1` (centres undefined), for which the TGI in [1], in test [2], in [8], in test [3], in test [4] and in [5] was over 100 µM in each case. Further, the TGI in test [6] and in test [7] was over 100 µM throughout.

With `N#Cc1cn(-c2c3ccccc3nc3ccccc23)c(=O)[nH]c1=O`, the TGI in test [1] stood at 23.8 µM; in [2], 18.3 µM; in test [8] it was 33.1 µM; in test [3], 71 µM; in test [4], 71.8 µM; in test [6], 64.3 µM. This molecule also registered a TGI in test [7] of over 100 µM.

Regarding `CC1(C)CC(N2CCN(C3CC(C)(C)NC(C)(C)C3)CC2)CC(C)(C)N1`, the TGI in [1], in test [2], in test [8], in test [3], in test [4] and in test [5] was over 100 µM in each case. Also, the TGI in test [7] was over 100 µM.

On to `O=C(O)COc1ccc(C(=O)/C(SS/C(C(=O)c2ccc(OCC(=O)O)c(Cl)c2Cl)=C2\C=C(c3ccccc3Cl)SS2)=C2/C=C(c3ccccc3Cl)SS2)c(Cl)c1Cl`, for which the TGI is over 100 µM in [1]; 11.3 µM in test [2]; over 100 µM in [8]; 36.5 µM in test [3]; 63.2 µM in [4]; over 100 µM in [5]. The TGI in test [6] was over 77.1 µM; in [7], over 95.7 µM.

In the case of `CCCCCCSc1nc(COC(=O)NC)c(COC(=O)NC)n1C`, the TGI in test [9], in test [1], in [2], in [8], in [3] and in test [4] was over 100 µM throughout. Besides, the TGI in test [10], in [6] and in test [7] was over 100 µM in each case.

With `Cc1ccc2nc3c(C)cc(=O)cc-3sc2c1`, the TGI in test [1] is over 100 µM; in test [2], 45.1 µM; in test [8] it was over 100 µM; in test [3], over 100 µM; in test [4] it was over 100 µM; in test [5] it was 70.9 µM. The TGI in test [6] came to 72.2 µM; in test [7], 49.8 µM.

For `Cc1c(O)c(Br)c(C)c(O)c1Br` (tested in a mixture with another compound), the TGI in test [9] worked out at 3.44 µM; in test [1], 37.1 µM; in test [8], 29.4 µM; in [3], 24.4 µM; in test [4], 20.5 µM; in test [10], 25.5 µM. Moreover, the TGI in test [6] was found to be 3.6 µM; in test [7], 3.01 µM.

`NC(=O)c1cc([N+](=O)[O-])cc([N+](=O)[O-])c1`: the TGI in [1], in [2], in test [8], in test [3], in test [4] and in [6] was over 100 µM in each case. In addition, the TGI in test [7] is over 100 µM.

As for `O=C1CC[C@@H](NC(=O)Cc2ccccc2)C(=O)N1`, the TGI in test [1], in test [2], in test [8], in test [3], in [4] and in test [5] was over 100 µM in each case. Moreover, the TGI in [6] and in test [7] was over 100 µM each time.

As to `CCCCCCCCCCCC(=O)OC(COC(N)=O)COc1ccc(Cl)cc1` (centres undefined), the TGI was 40 µM in test [1]; 31.5 µM in [2]; over 100 µM in [8]; 52.7 µM in test [3]; 81.2 µM in [4]; 96.1 µM in test [5]. The TGI in test [6] is 37.5 µM; in test [7] it was over 100 µM.

For the molecule `O=C(/C=C/c1ccc(O)cc1)c1cc(Cl)ccc1O`, the TGI in test [1] was over 100 µM; in test [2], 36.2 µM; in test [8] it was over 100 µM; in test [3], over 100 µM; in [4], over 100 µM; in test [5], over 100 µM. In addition, the TGI in test [6] and in test [7] was over 100 µM each time.

With `Cc1ccc(NC(=O)C(=O)CC(=O)c2ccccc2)cc1C`, the TGI in test [1], in test [2], in [8], in test [3], in [4] and in [5] was over 100 µM each time. In addition, the TGI in [6] and in test [7] was over 100 µM throughout.

Consider `c1ccc2c(c1)N=C(c1ccc3ccccc3c1)CC(c1cccc3ccccc13)S2` (centres undefined), for which the TGI in [1] is over 100 µM; in test [2], 75.4 µM; in [8], over 100 µM; in test [3], over 100 µM; in [4] it was over 100 µM; in test [5], 40.3 µM. Besides, the TGI in [6] and in test [7] was over 100 µM each time.

Regarding `Cn1cnc([N+](=O)[O-])c1Sc1nc2ccc([N+](=O)[O-])cc2[nH]1`, the TGI in test [1] is over 100 µM; in [8], 62.5 µM; in test [3], over 100 µM; in test [4], 58.6 µM; in [5], 29.2 µM; in [6], 23.4 µM. In addition, the TGI in test [7] worked out at 59.3 µM.
